Common to all, as to format: functional
One assay deals with HCT-8. As to the kind of experiment: Cytotoxicity against human HCT8 cells.
Another assay relates to B16. As to the kind of experiment: Cytotoxicity against mouse B16 cells.
The subject of another assay is MCF7. As to the kind of experiment: Cytotoxicity against human MCF7 cells.
In another assay the test system is Staphylococcus aureus. As to the kind of experiment: Antibacterial activity against Staphylococcus aureus ATCC 25923.
The subject of the next assay is Escherichia coli. Briefly: Antibacterial activity against Escherichia coli ATCC 25922.
For assay [1], the system named is Mycobacterium tuberculosis. Briefly: Antimycobacterial activity against Mycobacterium tuberculosis H37Rv.

Molecules are shown by their SMILES.

Drawing on ChEMBL document CHEMBL1148920, “Ingenamine G and cyclostellettamines G-I, K, and L from the new Brazilian species of marine sponge Pachychalina sp” (2004), this text covers Activity for one compound.

On to `OC1/C=C\C=C/CCN2CC3C=C4CCCCCCCCCC/C=C\CCN5CCC3C(C1)(C5)C42` (stereo unspecified) [INGENAMINE G], for which the Activity with HCT-8 is 8.6 µg/mL; with B16, 9.8 µg/mL; in the assay on MCF7, 11.3 µg/mL; in the assay with Staphylococcus aureus, 105 µg/mL; with Escherichia coli it was 75 µg/mL; in assay [1], 8 µg/mL.
